Structures can show the parent of a compound that is named as a salt. Where two headings read alike, the source gives them in different places.

From US12180198B2, “Ribocil C antibiotics effective for Gram-negative pathogens” (THE BOARD OF TRUSTEES OF THE UNIVERSITY OF ILLINOIS, priority 2018, dated 2024) come the findings set out here.

The test system of one data set is E. coli BAA-2469. Description: Bioactivity against exemplary strains of bacteria (Table 5A). It is filed as cell-based. On the set-up: unit not given here. The following applies: Strain 2: E. coli BAA-2469.
Data set [1] relates to strains harboring FabI G148S. Briefly: MIC against resistant mutants. In kind it is cell-based, E. coli. The conditions noted are these: Escherichia coli, FABIG148S. How it is done: (§1) Antimicrobial susceptibility tests. Susceptibility testing was performed in biological triplicate, using the micro-dilution broth method as outlined by the Clinical and Laboratory Standards Institute. Bacteria were cultured with cation-adjusted Muller-Hinton broth (Sigma-Aldrich, Cat #90922) in round-bottom 96-well plates (Corning, Cat #3788). Human serum (pooled gender, 0.2 μm filtered) was purchased from BioIVT (Hicksville, NY).
Selection of resistant mutants. Resistant mutants were selected via the large inoculum method.

The target in another data set is E. coli FabI (Escherichia coli, UniProt P0AEK4). Briefly: In vitro FabI inhibition assay. It is filed as biochemical. The following applies: 20 nM enzyme. How it is done:
Expression and purification of E. coli FabI. E. coli BL21 (DE3) pLysS (Novagen) were transformed with pET15-ecFabI. Overnight culture (10 mL) in LB supplemented with 50 μg/mL ampicillin from single colony was diluted into 1 L LB+50 μg/mL ampicillin. Cells were grown at 37° C., 250 rpm until OD600 reached 0.8. Culture was cooled to 18° C. and induced with 0.5 mM IPTG for 18 h at 18° C. Cells were harvested by centrifugation (5,000×g, 10 min, 4° C.). Cell pellets were flash frozen and store at −20° C. pending purification. Frozen cell pellets were thawed on ice and resuspended (5 mL per gram wet pellet, typically 20-30 mL) with 0.5% CHAPS, 1 mM PMSF, 1 μg/mL leupeptin, 1 μg/mL pepstatin A, and 2 μg/mL aprotinin in binding buffer [20 mM Tris (pH 7.9), 500 mM NaCl, 5 mM imidazole]. Cells were lysed by sonication on ice (30%, 10 s pulse, 20 s rest, 5 min total). Lysate was clarified by centrifugation (35,000×g, 1 h, 4° C.) and filtration through 0.2 μm syringe filter. Lysate was incubated with 5 mL Co-NTA agarose (HisPur cobalt resin, Thermo-Fisher Scientific Cat #89965, pre-equilibrated with binding buffer) for 30 min at 4° C. with gentle rocking. Agarose-containing lysate was transferred to column and flow through discarded. Column was washed with 2 column volumes of binding buffer followed by 10 column volumes of wash buffer [20 mM Tris (pH 7.9), 500 mM NaCl, 60 mM imidazole]. Protein was eluted with 15 mL elution buffer [20 mM Tris (pH 7.9), 500 mM NaCl, 300 mM imidazole]. […] Protein concentration was determined by BCA assay (ThermoFisher Cat #23227).
In vitro FabI inhibition assay. […] Plate was placed in plate-reader (SpectraMax 190, Molecular Devices) under temperature control (25° C.), and temperature was allowed to equilibrate. […] After shaking for 5 s, reaction progress was monitored by absorbance at 340 nm every 15 s for 90 min. Linear portion of reaction progress curve was fit using plate-reader software (SoftMax Pro 7.0). Percent activity was calculated relative to DMSO-only and no-enzyme controls in each plate. […]

Data set [2] deals with E. coli strains with intact outer membranes. Description: MIC, micro-dilution broth method (text summary). In kind it is cell-based. The following applies: Escherichia coli. How it is done: FIG. 2. Antimicrobial activity of Debio-1452 and derivatives. MIC values were determined using the micro-dilution broth method as outlined by the Clinical and Laboratory Standards Institute (clsi.org/). All experiments were performed in biological triplicate.
as §1
For orientation: Dilution methods test growth across graded concentrations, often in twofold steps.

The subject of another data set is A. baumannii BAA-2093. Description: Bioactivity against exemplary strains of bacteria (Table 5A). In kind it is cell-based. The following applies: Strain 3: A. baumannii BAA-2093.
A further data set concerns H. sapiens IMR-90. Description: Cell viability, Alamar Blue. In kind it is cell-based. Here is the method:
Cell culture. IMR90 cells were obtained from ATCC. IMR90 cells were grown in EMEM with 10% fetal bovine serum (Gemini Benchmark, Cat #100-106), 100 U/mL penicillin, and 100 μg/mL streptomycin. All cells were cultured at 37° C. in a 5% CO2 environment. Media was prepared by the University of Illinois School of Chemical Sciences Cell Media Facility. Sex and age of cell lines: IMR90 ([…]).
Cell viability. Cells seeded (IMR90: 5,000 cells/well) a 96-well plate (Greiner Bio-One, Cat #655180) and were allowed to attach overnight. Cells were treated with investigational compounds in DMSO (30 μM, 1% DMSO final, 100 μL/well). Raptinal (100 μM) was used as a dead control. After 24 h post-treatment, media was exchanged with compound-free media. After 72 h post-treatment, cell viability was assessed using the Alamar Blue method. Stock Alamar Blue solution [10 μL, 440 μM resazurin (Sigma-Aldrich, Cat #R7017) in sterile 1×PBS] was added to each well, and plate was incubated […]. Conversion of Alamar Blue was measured with plate reader (SpectraMax M3, Molecular Devices) by fluorescence (ex 555 nm, em 585 nm, cutoff 570 nm, autogain). Percent death was determined by normalizing to DMSO-treated cells and raptinal-treated cells.
Background: The colour change of resazurin is a common sign of viable cells or microbes.

Sequence of E. coli FabI (P0AEK4 whole entry): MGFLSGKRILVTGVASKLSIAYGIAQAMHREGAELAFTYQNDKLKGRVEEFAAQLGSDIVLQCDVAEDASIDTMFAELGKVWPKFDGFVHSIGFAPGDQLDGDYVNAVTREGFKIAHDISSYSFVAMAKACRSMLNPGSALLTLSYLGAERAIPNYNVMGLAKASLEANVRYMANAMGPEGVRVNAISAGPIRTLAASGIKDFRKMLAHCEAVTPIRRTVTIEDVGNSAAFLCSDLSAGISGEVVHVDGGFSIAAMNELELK

`Cc1c(CN(C)C(=O)/C=C/c2cnc3c(c2)CC(N)C(=O)N3)oc2ccccc12` (stereo not drawn) [Debio-1452-NH3, (E)-3-(6-amino-7-oxo-5,6,7,8-tetrahydro-1,8-naphthyridin-3-yl)-N-methyl-N-((3-methylbenzofuran-2-yl)methyl)acrylamide hydrochloride]: the Bioactivity in the data set on E. coli BAA-2469 and in the data set on A. baumannii BAA-2093 was 4 throughout. In addition, the minimal inhibitory concentration (MIC) in data set [1] is over 64 µg/mL; in data set [2] it was 4 µg/mL. Further, the “inhibition of E. coli FabI in vitro (in words)” value on E. coli FabI is listed as “potent FabI inhibitors”. In addition, in the data set on H. sapiens IMR-90 (24 hour exposures), the “toxicity to mammalian cells grown in culture (in words)” value is “little toxicity”. The inhibition at 30 µM in the data set on H. sapiens IMR-90 (Homo sapiens, IMR-90, read-out: % inhibition at 30 μM) came out at 30%.

For `Cc1c(CN(C)C(=O)/C=C/c2cnc3c(c2)CCC(=O)N3)oc2ccccc12` [Debio-1452, (E)-N-methyl-N-((3-methylbenzofuran-2-yl)methyl)-3-(7-oxo-5,6,7,8-tetrahydro-1,8-naphthyridin-3-yl)acrylamide, reference compound], the Bioactivity in the data set with E. coli BAA-2469 is given as over 32; in the data set with A. baumannii BAA-2093, 16. In addition, the “inhibition of E. coli FabI in vitro (in words)” value at E. coli FabI was “potent FabI inhibitors”. In addition, the MIC in data set [2] (E. coli strains with intact outer membranes, read-out: MIC) is over 32 µg/mL. In addition, the inhibition at 30 µM in the data set with H. sapiens IMR-90 (H. sapiens IMR-90, 30 μM, 24 h exposure, viability at 72 h, read-out: % inhibition at 30 μM) was 16%.

The MIC is the lowest concentration found to suppress growth. A word on the inhibition: it is the relative decrease from the control value, in per cent.
